Measurements: the supplement of paper PMC10307832

Legend:
Assay in all cases: relative viability (nuclei count vs DMSO), 5 days (fraction); higher = more cells survive
IU1-47 + OSI-027 = compound: CC1=CC(=C(N1C2=CC=C(C=C2)Cl)C)C(=O)CN3CCCCC3 [IU1-47] + COc1cccc2cc(-c3nc([C@H]4CC[C@H](C(=O)O)CC4)n4ncnc(N)c34)[nH]c12 [OSI-027] (partner 0.5 µM)
In short: (§1)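 Relative viability is defined as nuclei in treated wells over nuclei in vehicle wells. Duplicate plates were run and medians reported. Lung cancer cell lines in 1536-well plates were dosed by pin tool one day after seeding, with one drug or with a fixed anchor-drug dose plus five library-drug doses (not always all listed) in √10 steps, and nuclei were counted after 5 days.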

IU1-47 + Crizotinib = compound: CC1=CC(=C(N1C2=CC=C(C=C2)Cl)C)C(=O)CN3CCCCC3 [IU1-47] + C[C@@H](Oc1cc(-c2cnn(C3CCNCC3)c2)cnc1N)c1c(Cl)ccc(F)c1Cl [Crizotinib] (partner 1 µM)
In short: as §1

IU1-47 + Decitabine = compound: CC1=CC(=C(N1C2=CC=C(C=C2)Cl)C)C(=O)CN3CCCCC3 [IU1-47] + Nc1ncn([C@H]2C[C@H](O)[C@@H](CO)O2)c(=O)n1 [Decitabine] (partner 2 µM)
In short: as §1

FG-4592 + OSI-027 = compound: Cc1nc(C(=O)NCC(=O)O)c(O)c2ccc(Oc3ccccc3)cc12 [FG-4592] + COc1cccc2cc(-c3nc([C@H]4CC[C@H](C(=O)O)CC4)n4ncnc(N)c34)[nH]c12 [OSI-027] (partner 0.5 µM)
In short: as §1

Row | Cell Line | relative viability (IU1-47 + OSI-027; first compound 0.08 µM) | relative viability (IU1-47 + OSI-027; first compound 0.253 µM) | relative viability (IU1-47 + OSI-027; first compound 0.8 µM) | relative viability (IU1-47 + OSI-027; first compound 2.53 µM) | relative viability (IU1-47 + OSI-027; first compound 8 µM) | relative viability (IU1-47 + Crizotinib; first compound 0.08 µM) | relative viability (IU1-47 + Crizotinib; first compound 0.253 µM) | relative viability (IU1-47 + Crizotinib; first compound 0.8 µM) | relative viability (IU1-47 + Crizotinib; first compound 2.53 µM) | relative viability (IU1-47 + Crizotinib; first compound 8 µM) | relative viability (IU1-47 + Decitabine; first compound 0.08 µM) | relative viability (IU1-47 + Decitabine; first compound 0.253 µM) | relative viability (IU1-47 + Decitabine; first compound 0.8 µM) | relative viability (IU1-47 + Decitabine; first compound 2.53 µM) | relative viability (IU1-47 + Decitabine; first compound 8 µM) | relative viability (FG-4592 + OSI-027; first compound 0.08 µM) | relative viability (FG-4592 + OSI-027; first compound 0.253 µM) | relative viability (FG-4592 + OSI-027; first compound 0.8 µM) | relative viability (FG-4592 + OSI-027; first compound 2.53 µM) | relative viability (FG-4592 + OSI-027; first compound 8 µM)
1 | NCI-H1975 | 0.69 | 0.817 | 0.779 | 0.94 | 0.531 | 1.04 | 1.01 | 1 | 1.01 | 0.845 | 0.397 | 0.381 | 0.585 | 0.361 | 0.378 | 0.693 | 0.605 | 0.75 | 0.652 | 0.614
2 | CAL-12T | 0.764 | 0.635 | 0.675 | 0.631 | 0.683 | 0.689 | 0.713 | 0.479 | 0.839 | 0.518 | – | – | – | – | – | 0.829 | 0.663 | 0.642 | 0.49 | 0.333
3 | NCI-H1623 | 0.452 | 0.451 | 0.449 | 0.434 | 0.391 | – | – | – | – | – | – | – | – | – | – | 0.447 | 0.447 | 0.468 | 0.416 | 0.419
4 | HCC-44 | 0.403 | 0.483 | 0.593 | 0.434 | 0.389 | 0.801 | 0.784 | 0.809 | 0.77 | 0.799 | 0.982 | 0.938 | 0.966 | 0.917 | 1.03 | 0.504 | 0.489 | – | 0.476 | 0.377
5 | EKVX | 0.858 | 0.862 | 0.726 | 0.658 | 0.828 | 0.981 | 1.14 | 1.05 | 0.892 | 0.793 | 0.376 | 0.339 | 0.364 | – | 0.352 | 0.626 | 0.649 | 0.718 | 0.663 | 0.73
6 | NCI-H1651 | 0.651 | 0.717 | 0.726 | 0.671 | 0.622 | 0.887 | 0.873 | 0.889 | 0.804 | 0.863 | 0.627 | 0.672 | 0.522 | 0.357 | 0.579 | 0.741 | 0.639 | 0.719 | 0.645 | 0.605
7 | NCI-H1944 | 0.401 | 0.357 | 0.411 | 0.444 | 0.376 | 1.15 | 1.21 | 1.08 | – | 1.09 | 0.446 | 0.474 | 0.419 | 0.426 | 0.388 | 0.401 | 0.367 | 0.412 | 0.325 | 0.364
8 | NCI-H1703 | – | – | – | – | – | 0.524 | 0.917 | 0.426 | 1.15 | 1.11 | – | – | – | – | – | – | – | – | – | –
9 | Calu-6 | – | – | – | – | – | 0.838 | 0.829 | 0.692 | 1.02 | 0.665 | – | – | – | – | – | – | – | – | – | –
10 | EBC-1 | – | – | – | – | – | 0.239 | 0.202 | 0.209 | 0.172 | 0.229 | – | – | – | – | – | – | – | – | – | –
11 | SW 1573 | 0.675 | 0.618 | 0.583 | 0.216 | 0.607 | 0.728 | 0.796 | 0.761 | 0.859 | 0.903 | 0.529 | 0.599 | 0.542 | 0.342 | 0.506 | 0.556 | 0.537 | 0.63 | 0.536 | 0.561
12 | A-427 | 0.454 | 0.472 | 0.453 | – | 0.463 | 1.04 | 0.938 | 0.944 | – | 0.634 | 0.556 | 0.583 | 0.517 | 0.547 | 0.5 | 0.479 | 0.393 | 0.506 | 0.423 | 0.598
13 | NCI-H2347 | 0.318 | 0.456 | 0.43 | 0.398 | 0.375 | 0.575 | 0.746 | 0.727 | 0.674 | 0.762 | 0.662 | 0.663 | 0.609 | 0.615 | 0.581 | 0.235 | – | 0.491 | 0.3 | 0.46
14 | NCI-H1355 | 0.396 | 0.427 | 0.402 | – | 0.395 | 1.17 | 1.09 | 1.14 | 1 | 1.14 | 0.364 | 0.342 | 0.348 | – | 0.349 | 0.376 | 0.372 | 0.353 | 0.301 | 0.35
15 | NCI-H358 | 0.889 | 1.15 | 1.04 | 0.676 | 0.82 | 0.532 | 0.607 | 0.516 | – | 0.495 | 0.242 | 0.204 | 0.2 | 0.201 | 0.21 | 0.695 | 0.664 | 0.83 | 0.702 | 0.572
16 | PC-3 [JPC-3] | 0.796 | 0.874 | 0.716 | 0.705 | 0.555 | 1.08 | 0.975 | 1.08 | – | 0.962 | 0.905 | 0.935 | 0.886 | 0.834 | 0.888 | 0.674 | 0.75 | 0.79 | 0.662 | 0.681
17 | NCI-H2228 | 0.619 | 0.581 | 0.662 | 0.368 | 0.39 | 0.524 | 0.455 | 0.449 | 0.555 | 0.448 | – | – | – | – | – | 0.596 | 0.402 | 0.42 | 0.643 | 0.376
18 | HOP-62 | 0.918 | 0.93 | 0.901 | 0.771 | 0.712 | 0.918 | 0.873 | 0.901 | 0.441 | 0.971 | 0.233 | 0.218 | 0.224 | 0.247 | 0.208 | 0.839 | 0.736 | 0.814 | 0.722 | 0.713
19 | HARA | 0.554 | 0.406 | 0.456 | – | 0.413 | 0.945 | 1.17 | 1.29 | 1.12 | 0.719 | 0.494 | – | 0.524 | 0.489 | 0.486 | 0.334 | 0.335 | 0.434 | 0.392 | 0.234
20 | NCI-H838 | 0.405 | 0.424 | 0.428 | 0.417 | 0.447 | 0.858 | 0.895 | 0.844 | 1.03 | 0.669 | 0.423 | 0.451 | 0.471 | 0.501 | 0.449 | 0.372 | 0.31 | 0.389 | 0.289 | 0.357
